As usually defined, the inhibition is the drop in the measured response relative to a control, in per cent.

The target of this experiment is BTK (Homo sapiens, UniProt Q06187). Kind of experiment: biochemical.
The mark [1] stands for this setting: read-out: BTK inhibition (%), 0.75 uM BTK, […] probe 3l, 15 min preincubation.

Structures are written as SMILES. Where two headings read alike, the source gives them in different places.

BTK, sequence (Q06187 402-655 limits assumed): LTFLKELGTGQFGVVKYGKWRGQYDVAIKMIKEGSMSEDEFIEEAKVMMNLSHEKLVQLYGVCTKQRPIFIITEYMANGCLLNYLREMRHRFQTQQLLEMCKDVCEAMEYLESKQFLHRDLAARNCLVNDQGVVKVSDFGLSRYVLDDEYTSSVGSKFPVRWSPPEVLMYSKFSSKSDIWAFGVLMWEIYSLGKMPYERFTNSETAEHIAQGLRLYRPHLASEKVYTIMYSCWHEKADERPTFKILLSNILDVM

For the compound `C=CC[N+]1([C@H]2C[C@H]3[C@@H]4CC[C@H]5C[C@H](O)[C@@H](N6CCOCC6)C[C@]5(C)[C@H]4CC[C@]3(C)[C@H]2OC(C)=O)CCCC1` [PCM-0214619], the inhibition at 10 µM under setting [1] is -24.1%.

As to `CC(C)OC(=O)OCOP(=O)(CO[C@H](C)Cn1cnc2c(N)ncnc21)OCOC(=O)OC(C)C` [PCM-0214620], the inhibition at 10 µM under setting [1] was -14.8%.

Take `CN(C)c1cc(NC(=O)CNC(C)(C)C)c(O)c2c1C[C@H]1C[C@H]3[C@H](N(C)C)C(=O)C(C(N)=O)=C(O)[C@@]3(O)C(=O)C1=C2O` [PCM-0214621]: under setting [1], the inhibition at 10 µM turned out to be 32.7%.

`C[C@]12CC[C@H]3[C@@H](CC[C@@]45O[C@@H]4C(O)=C(C#N)C[C@]35C)[C@@H]1CC[C@@H]2O` [PCM-0214622]: the inhibition at 10 µM under setting [1] worked out at 13.2%.

Consider `C[C@@H](c1ncncc1F)[C@](O)(Cn1cncn1)c1ccc(F)cc1F` [PCM-0214624], for which the inhibition at 10 µM under setting [1] was 2.3%.

Regarding `NS(=O)(=O)Cc1noc2ccccc12` [PCM-0214625], the inhibition at 10 µM under setting [1] is -14.8%.

Take `C=C1/C(=C\C=C2/CCC[C@]3(C)[C@@H]([C@H](C)/C=C/[C@H](C)C(C)C)CC[C@@H]23)C[C@@H](O)C[C@@H]1O` [PCM-0214626]: the inhibition at 10 µM under setting [1] turned out to be 4.1%.

For `CCN1CCN(Cc2ccc(-c3cc4c(N[C@H](C)c5ccccc5)ncnc4[nH]3)cc2)CC1` [PCM-0214628], the inhibition at 10 µM under setting [1] came to 41.4%.

For the compound `C[C@H]1C[C@H]2[C@@H]3CCC4=CC(=O)C=C[C@]4(C)[C@@]3(F)[C@@H](O)C[C@]2(C)[C@@]1(O)C(=O)CO` [PCM-0214629], the inhibition at 10 µM under setting [1] is -6.2%.

For the compound `CN1CC(=O)N2[C@H](c3ccc4c(c3)OCO4)c3[nH]c4ccccc4c3C[C@@H]2C1=O` [PCM-0214630], the inhibition at 10 µM under setting [1] is -6.2%.

As for `NC(=O)c1cccc2[nH]c(-c3ccc([C@@H]4CCCN4)cc3F)nc12` [PCM-0214633], under setting [1], the inhibition at 10 µM stood at 17.1%.

As for `C[C@@H]1[C@H](O)[C@@H](C)/C=C/C=C/C=C/C=C/C=C/C=C/C=C/[C@H](O[C@@H]2O[C@H](C)[C@@H](O)[C@H](N)[C@@H]2O)C[C@@H]2O[C@](O)(C[C@@H](O)C[C@@H](O)[C@H](O)CC[C@@H](O)C[C@@H](O)CC(=O)O[C@H]1C)C[C@H](O)[C@H]2C(=O)O` [PCM-0214634], the inhibition at 10 µM under setting [1] was -3.1%.

For the compound `CC[C@H]1OC(=O)[C@H](C)[C@@H](O[C@H]2C[C@@](C)(OC)[C@@H](O)[C@H](C)O2)[C@H](C)[C@@H](O[C@@H]2O[C@H](C)C[C@H](N(C)C)[C@H]2O)[C@](C)(OC)C[C@@H](C)C(=O)[C@H](C)[C@@H](O)[C@]1(C)O` [PCM-0214635], the inhibition at 10 µM under setting [1] was found to be 9.3%.

Take `CC1(C)S[C@@H]2[C@H](NC(=O)[C@H](N)c3ccccc3)C(=O)N2[C@H]1C(=O)O` [PCM-0214636]: the inhibition at 10 µM under setting [1] was -1.6%.

For `CC(C)[C@H](O)C(=O)N[C@@H](C)C(=O)N[C@@H]1C(=O)N(C)CCc2ccccc21` [PCM-0214637], the inhibition at 10 µM under setting [1] is -3.1%.

`COC(=O)[C@H]1[C@H]2C[C@@H]3c4[nH]c5cc(OC)ccc5c4CCN3C[C@H]2C[C@@H](OC(=O)c2cc(OC)c(OC)c(OC)c2)[C@@H]1OC` [PCM-0214638]: the inhibition at 10 µM under setting [1] came to 35%.

For `CO[C@H]1O[C@@H]2O[C@@]3(C)CC[C@H]4[C@H](C)CC[C@@H]([C@H]1C)[C@@]24OO3` [PCM-0214640], the inhibition at 10 µM under setting [1] came out at 3.1%.

Consider `C[C@H](CCC(=O)O)[C@H]1CC[C@H]2[C@@H]3[C@@H](O)C[C@@H]4C[C@H](O)CC[C@]4(C)[C@H]3CC[C@]12C` [PCM-0214641], for which the inhibition at 10 µM under setting [1] was found to be 24.1%.

In the case of `C[C@@H]1CC[C@H]2[C@@H](C)C(=O)O[C@@H]3O[C@@]4(C)CC[C@@H]1[C@]32OO4` [PCM-0214642], under setting [1], the inhibition at 10 µM was 8.6%.

Consider `C[C@H]1[C@H](OC(=O)CCC(=O)O)O[C@@H]2O[C@@]3(C)CC[C@H]4[C@H](C)CC[C@@H]1[C@@]24OO3` [PCM-0214643], for which, under setting [1], the inhibition at 10 µM came out at 6.2%.

`C[C@]12CC[C@@H]3c4ccc(O)cc4CC[C@H]3[C@@H]1CCC2=O` [PCM-0214644]: under setting [1], the inhibition at 10 µM is -4.8%.

Take `O=C(N[C@H](CO)[C@H](O)c1ccc([N+](=O)[O-])cc1)C(Cl)Cl` [PCM-0214645]: the inhibition at 10 µM under setting [1] is -8.6%.

With `C[C@]12CCC(=O)C=C1CC[C@@H]1[C@@H]2[C@@H](O)C[C@@]2(C)[C@H]1CC[C@]2(O)C(=O)CO` [PCM-0214647], the inhibition at 10 µM under setting [1] was 12.4%.

Turning to `CC1(C)O[C@@H]2C[C@H]3[C@@H]4CCC5=CC(=O)C=C[C@]5(C)[C@H]4[C@@H](O)C[C@]3(C)[C@]2(C(=O)CO)O1` [PCM-0214648], under setting [1], the inhibition at 10 µM amounted to 4.8%.

On to `C[C@]12CC[C@@H]3c4ccc(O)cc4CC[C@H]3[C@@H]1CC[C@@H]2O` [PCM-0214649], for which the inhibition at 10 µM under setting [1] was 4.1%.

Take `CO/N=C(\C(=O)N[C@@H]1C(=O)N2C(C(=O)OCOC(=O)C(C)(C)C)=C(/C=C\c3scnc3C)CS[C@H]12)c1csc(N)n1` [PCM-0214651]: under setting [1], the inhibition at 10 µM turned out to be 28%.

For `CCC(C)(C)C(=O)O[C@H]1C[C@@H](C)C=C2C=C[C@H](C)[C@H](CC[C@@H]3C[C@@H](O)CC(=O)O3)[C@H]21` [PCM-0214653], under setting [1], the inhibition at 10 µM is -13.1%.

For the compound `C[C@H](CCC(=O)O)[C@H]1CC[C@H]2[C@@H]3[C@H](O)C[C@@H]4C[C@H](O)CC[C@]4(C)[C@H]3CC[C@]12C` [PCM-0214654], the inhibition at 10 µM under setting [1] is 6.2%.

Consider `CN=C(NC#N)NCCSCc1nc[nH]c1C` [PCM-0214655], for which the inhibition at 10 µM under setting [1] is -12.4%.

As to `C[C@@H]1O[C@@H](OC[C@H]2O[C@@H](Oc3c(-c4ccc(OCCO)c(OCCO)c4)oc4cc(OCCO)cc(O)c4c3=O)[C@H](O)[C@@H](O)[C@@H]2O)[C@H](O)[C@H](O)[C@H]1O` [PCM-0214656], the inhibition at 10 µM under setting [1] is -19.5%.

On to `C[C@H]1[C@H](C)CC[C@]2(C(=O)O)CC[C@]3(C)C(=CC[C@@H]4[C@@]5(C)CC[C@H](O)C(C)(C)[C@@H]5CC[C@]43C)[C@H]12` [PCM-0214657], for which, under setting [1], the inhibition at 10 µM was found to be 10.9%.

With `COC(=O)[C@@H]1[C@H]2C[C@H]3c4[nH]c5ccccc5c4CCN3C[C@@H]2CC[C@@H]1O` [PCM-0214658], under setting [1], the inhibition at 10 µM was -21.8%.

With `O=C[C@H](O)[C@@H](O)[C@H](O)CO` [PCM-0214661], the inhibition at 10 µM under setting [1] is -12.5%.

As to `C#C[C@]1(O)CC[C@H]2[C@@H]3CCc4cc(OC)ccc4[C@H]3CC[C@@]21C` [PCM-0214662], the inhibition at 10 µM under setting [1] is 8.6%.

Take `C#C[C@]1(OC(C)=O)CC[C@H]2[C@@H]3CCC4=C[C@@H](OC(C)=O)CC[C@@H]4[C@H]3CC[C@@]21C` [PCM-0214663]: under setting [1], the inhibition at 10 µM stood at 2.3%.

Regarding `CCCCCCOC(=O)NC(=N)c1ccc(NCc2nc3cc(C(=O)N(CCC(=O)OCC)c4ccccn4)ccc3n2C)cc1` [PCM-0214664], the inhibition at 10 µM under setting [1] was -14%.

As to `C[C@@H](O)[C@H]1C(=O)N2C(C(=O)OCOC(=O)C(C)(C)C)=C(SC3CN(C4=NCCS4)C3)[C@H](C)[C@H]12` [PCM-0214665], the inhibition at 10 µM under setting [1] was found to be 4.7%.

With `C[C@]12CCC(=O)C(O)=C1CC[C@@H]1[C@@H]2CC[C@]2(C)C(=O)CC[C@@H]12` [PCM-0214668], the inhibition at 10 µM (read-out: BTK inhibition (%)) was -1.4%.

Turning to `O=c1cc(-c2ccccc2)oc2cc(O)c(O)c(O)c12` [PCM-0214670], the inhibition at 10 µM under setting [1] was determined as 79.4%.

As to `CCO[C@@H]1OC(=O)C[C@@H]1NC(=O)[C@@H]1CCCN1C(=O)[C@@H](NC(=O)c1ccc(N)c(Cl)c1)C(C)(C)C` [PCM-0214671], the inhibition at 10 µM under setting [1] was -8.6%.

Turning to `COc1c(O)cc2c(c1O)[C@@H]1O[C@H](CO)[C@@H](O)[C@H](O)[C@H]1OC2=O` [PCM-0214672], the inhibition at 10 µM under setting [1] is 7%.

Turning to `C[C@@H]1CC[C@H]2[C@@H](C)C(O)O[C@@H]3O[C@@]4(C)CC[C@@H]1[C@]32OO4` (stereo partly drawn) [PCM-0214674], the inhibition at 10 µM under setting [1] was -20.2%.

Turning to `CC1(C)[C@@H](O)CC[C@]2(C)[C@H]3C(=O)C=C4[C@@H]5C[C@@](C)(C(=O)O)CC[C@]5(C)CC[C@@]4(C)[C@]3(C)CC[C@@H]12` [PCM-0214675], the inhibition at 10 µM under setting [1] turned out to be 4.7%.

With `CC(C)=CCC[C@](C)(O[C@@H]1O[C@H](CO[C@@H]2OC[C@@H](O)[C@H](O)[C@H]2O)[C@@H](O)[C@H](O)[C@H]1O)[C@H]1CC[C@]2(C)[C@@H]1[C@H](O)C[C@@H]1[C@@]3(C)CC[C@H](O[C@@H]4O[C@H](CO)[C@@H](O)[C@H](O)[C@H]4O)C(C)(C)[C@@H]3CC[C@]12C` [PCM-0214676], the inhibition at 10 µM under setting [1] is 35.8%.

Consider `COc1ccc([C@@H]2CC(=O)c3c(O)cc(O[C@@H]4O[C@H](CO[C@@H]5O[C@@H](C)[C@H](O)[C@@H](O)[C@H]5O)[C@@H](O)[C@H](O)[C@H]4O)cc3O2)cc1O` [PCM-0214677], for which, under setting [1], the inhibition at 10 µM is -7%.

For `C[C@H](CCC(=O)O)[C@H]1CC[C@H]2[C@@H]3C[C@H](O)[C@@H]4C[C@H](O)CC[C@]4(C)[C@H]3CC[C@]12C` [PCM-0214678], the inhibition at 10 µM under setting [1] came to 3.9%.

Regarding `CC1(C)O[C@H]2CC(=O)OC[C@]23[C@H]2CC[C@@]4(C)[C@H](c5ccoc5)OC(=O)[C@H]5O[C@]54[C@]2(C)C(=O)C[C@@H]13` [PCM-0214679], the inhibition at 10 µM under setting [1] is -3.9%.

In the case of `CC1(C)CC[C@]2(C(=O)O)CC[C@]3(C)C(=CC[C@@H]4[C@@]5(C)CC[C@H](O)C(C)(C)[C@@H]5CC[C@]43C)[C@@H]2C1` [PCM-0214680], the inhibition at 10 µM under setting [1] is 27.2%.

As to `C=C1C(=O)[C@]23[C@H](O)[C@H]1CC[C@H]2[C@@]12CO[C@]3(O)[C@@H](O)[C@@H]1C(C)(C)CC[C@@H]2O` [PCM-0214681], the inhibition at 10 µM under setting [1] is -1.6%.

Take `C=C1C(=O)O[C@H]2[C@H]1CC/C(C)=C/CC[C@@]1(C)O[C@@H]21` [PCM-0214682]: under setting [1], the inhibition at 10 µM came out at 18.7%.

In the case of `C=C1C[C@@]2(O)O[C@@]3(C[C@H]2C(C)C)[C@@H](C)CC[C@@H]13` [PCM-0214683], the inhibition at 10 µM under setting [1] was -1.6%.

Take `CC(C)(O)[C@H]1CC[C@@](C)([C@H]2[C@@H](O)C[C@@]3(C)[C@@H]4C[C@H](O[C@@H]5O[C@H](CO)[C@@H](O)[C@H](O)[C@H]5O)[C@H]5C(C)(C)[C@@H](O[C@@H]6OC[C@@H](O)[C@H](O)[C@H]6O)CC[C@@]56C[C@@]46CC[C@]23C)O1` [PCM-0214684]: the inhibition at 10 µM under setting [1] was 5.4%.

For `COc1cc(O)cc(O)c1C(=O)C=Cc1ccccc1` [PCM-0214685], the inhibition at 10 µM under setting [1] is 12.5%.

For `C[C@]12CC[C@H](O)CC1=CC[C@@H]1[C@@H]2CC[C@]2(C)C(=O)CC[C@@H]12` [PCM-0214686], under setting [1], the inhibition at 10 µM was -24.9%.

(Values after article PMC8041284, “Tunable Methacrylamides for Covalent Ligand Directed Release Chemistry” (Journal of the American Chemical Society, 2021).)
